Laboratory results from ChEMBL document CHEMBL5442219.

Columns and labels:
Settings in all cases: Compound concentration 10 µM
[1] = target: T1, Alpha-2C adrenergic receptor (Homo sapiens) (UniProt P18825)
T1 sequence (whole entry): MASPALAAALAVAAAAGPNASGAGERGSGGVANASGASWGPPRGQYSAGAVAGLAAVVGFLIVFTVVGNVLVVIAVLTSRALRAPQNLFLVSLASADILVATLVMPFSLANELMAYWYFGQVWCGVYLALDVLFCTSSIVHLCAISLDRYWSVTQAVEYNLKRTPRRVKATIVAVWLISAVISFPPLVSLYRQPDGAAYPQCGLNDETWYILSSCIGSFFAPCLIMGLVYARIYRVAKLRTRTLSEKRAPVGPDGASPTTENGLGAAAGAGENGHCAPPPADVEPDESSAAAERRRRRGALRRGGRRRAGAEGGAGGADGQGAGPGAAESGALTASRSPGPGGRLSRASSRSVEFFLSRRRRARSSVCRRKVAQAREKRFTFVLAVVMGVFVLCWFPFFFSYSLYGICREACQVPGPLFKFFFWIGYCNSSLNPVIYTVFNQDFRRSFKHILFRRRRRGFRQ

[2] = target: Beta-2 adrenergic receptor (Homo sapiens) (UniProt P07550)
[3] = target: T2, Muscarinic acetylcholine receptor M5 (Homo sapiens) (UniProt P08912)
T2 sequence (whole entry): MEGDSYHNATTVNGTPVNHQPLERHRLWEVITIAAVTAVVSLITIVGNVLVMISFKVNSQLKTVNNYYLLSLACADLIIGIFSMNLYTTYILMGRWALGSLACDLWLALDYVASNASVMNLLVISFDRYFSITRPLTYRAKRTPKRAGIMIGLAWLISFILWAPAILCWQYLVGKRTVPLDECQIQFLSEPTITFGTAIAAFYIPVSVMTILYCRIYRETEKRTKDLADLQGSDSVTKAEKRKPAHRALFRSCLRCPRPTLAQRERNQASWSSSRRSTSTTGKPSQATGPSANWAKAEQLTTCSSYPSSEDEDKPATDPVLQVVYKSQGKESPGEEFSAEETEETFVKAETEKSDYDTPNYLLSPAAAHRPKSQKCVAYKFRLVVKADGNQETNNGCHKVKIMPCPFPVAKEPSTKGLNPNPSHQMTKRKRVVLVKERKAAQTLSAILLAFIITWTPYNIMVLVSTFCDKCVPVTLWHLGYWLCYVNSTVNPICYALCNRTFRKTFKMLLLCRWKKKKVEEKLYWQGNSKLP

[4] = target: D(2) dopamine receptor (Homo sapiens) (UniProt P14416)
[5] = target: D(3) dopamine receptor (Homo sapiens) (UniProt P35462)
[6] = target: D(1B) dopamine receptor (Homo sapiens) (UniProt P21918)
[7] = target: Histamine H4 receptor (Homo sapiens) (UniProt Q9H3N8)
[8] = target: T3, 5-hydroxytryptamine receptor 1A (Homo sapiens) (UniProt P08908)
T3 sequence (whole entry): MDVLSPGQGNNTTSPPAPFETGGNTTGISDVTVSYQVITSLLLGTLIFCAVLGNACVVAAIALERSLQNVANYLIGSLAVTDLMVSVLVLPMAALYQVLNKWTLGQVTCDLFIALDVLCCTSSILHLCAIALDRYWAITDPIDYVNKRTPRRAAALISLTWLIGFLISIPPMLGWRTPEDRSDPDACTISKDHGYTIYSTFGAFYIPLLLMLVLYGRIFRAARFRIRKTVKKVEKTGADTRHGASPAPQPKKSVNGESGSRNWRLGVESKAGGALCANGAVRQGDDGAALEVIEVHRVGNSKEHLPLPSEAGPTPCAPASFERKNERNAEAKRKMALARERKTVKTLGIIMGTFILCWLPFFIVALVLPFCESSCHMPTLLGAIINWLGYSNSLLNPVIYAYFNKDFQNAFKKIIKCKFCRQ

[9] = target: 5-hydroxytryptamine receptor 1B (Homo sapiens) (UniProt P28222)
[10] = target: 5-hydroxytryptamine receptor 1E (Homo sapiens) (UniProt P28566)
[11] = target: 5-hydroxytryptamine receptor 2A (Homo sapiens) (UniProt P28223)
[12] = target: 5-hydroxytryptamine receptor 6 (Homo sapiens) (UniProt P50406)
[13] = target: Delta-type opioid receptor (Homo sapiens) (UniProt P41143)
[14] = target: Sodium-dependent serotonin transporter (Homo sapiens) (UniProt P31645)
[15] = target: Sigma intracellular receptor 2 (Homo sapiens) (UniProt Q5BJF2)
[16] = target: Translocator protein (Homo sapiens) (UniProt P30536)
[17] = target: T4, Alpha-2A adrenergic receptor (Homo sapiens) (UniProt P08913)
T4 sequence (whole entry): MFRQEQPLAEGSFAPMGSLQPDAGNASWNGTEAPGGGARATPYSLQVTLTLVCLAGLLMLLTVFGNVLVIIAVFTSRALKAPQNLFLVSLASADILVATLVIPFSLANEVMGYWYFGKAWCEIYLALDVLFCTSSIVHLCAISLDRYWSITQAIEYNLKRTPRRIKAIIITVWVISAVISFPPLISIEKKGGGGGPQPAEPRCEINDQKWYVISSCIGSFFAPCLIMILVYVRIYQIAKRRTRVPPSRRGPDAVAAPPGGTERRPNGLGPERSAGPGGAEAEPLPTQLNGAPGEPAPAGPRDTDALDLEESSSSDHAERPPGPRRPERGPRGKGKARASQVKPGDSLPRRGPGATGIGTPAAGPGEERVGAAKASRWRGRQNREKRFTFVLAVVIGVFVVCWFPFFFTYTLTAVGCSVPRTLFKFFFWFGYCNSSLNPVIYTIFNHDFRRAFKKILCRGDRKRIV

[18] = target: D(1A) dopamine receptor (Homo sapiens) (UniProt P21728)
[19] = target: Sodium-dependent noradrenaline transporter (Homo sapiens) (UniProt P23975)
[20] = target: 5-hydroxytryptamine receptor 1D (Homo sapiens) (UniProt P28221)
[21] = target: 5-hydroxytryptamine receptor 7 (Homo sapiens) (UniProt P34969)
Sequence of 5-hydroxytryptamine receptor 7 (Homo sapiens) (P34969 whole entry): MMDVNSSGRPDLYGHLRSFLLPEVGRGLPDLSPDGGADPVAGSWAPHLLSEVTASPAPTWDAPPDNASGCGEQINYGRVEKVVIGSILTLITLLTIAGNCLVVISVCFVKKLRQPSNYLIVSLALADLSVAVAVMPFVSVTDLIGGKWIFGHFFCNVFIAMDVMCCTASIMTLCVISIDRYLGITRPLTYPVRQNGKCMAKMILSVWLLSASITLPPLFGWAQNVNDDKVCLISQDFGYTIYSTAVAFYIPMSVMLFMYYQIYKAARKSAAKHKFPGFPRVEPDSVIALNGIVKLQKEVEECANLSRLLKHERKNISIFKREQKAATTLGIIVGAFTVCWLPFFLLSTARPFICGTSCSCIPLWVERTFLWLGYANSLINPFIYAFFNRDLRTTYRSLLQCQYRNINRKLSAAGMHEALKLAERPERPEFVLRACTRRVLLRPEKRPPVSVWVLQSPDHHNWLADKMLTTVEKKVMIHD

Sequence of D(1B) dopamine receptor (Homo sapiens) (P21918 whole entry): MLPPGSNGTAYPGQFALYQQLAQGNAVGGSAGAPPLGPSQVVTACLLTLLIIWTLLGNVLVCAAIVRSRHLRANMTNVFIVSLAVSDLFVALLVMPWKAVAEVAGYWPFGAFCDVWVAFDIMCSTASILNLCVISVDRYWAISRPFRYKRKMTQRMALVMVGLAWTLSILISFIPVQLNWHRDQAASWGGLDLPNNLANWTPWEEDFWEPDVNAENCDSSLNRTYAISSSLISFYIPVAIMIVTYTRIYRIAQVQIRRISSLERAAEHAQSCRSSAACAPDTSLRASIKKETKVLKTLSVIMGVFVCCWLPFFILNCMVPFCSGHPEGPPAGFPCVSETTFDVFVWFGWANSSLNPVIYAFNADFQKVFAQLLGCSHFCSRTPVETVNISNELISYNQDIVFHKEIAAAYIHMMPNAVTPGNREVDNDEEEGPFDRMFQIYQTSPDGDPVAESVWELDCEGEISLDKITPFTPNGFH
Sequence of 5-hydroxytryptamine receptor 6 (Homo sapiens) (P50406 whole entry): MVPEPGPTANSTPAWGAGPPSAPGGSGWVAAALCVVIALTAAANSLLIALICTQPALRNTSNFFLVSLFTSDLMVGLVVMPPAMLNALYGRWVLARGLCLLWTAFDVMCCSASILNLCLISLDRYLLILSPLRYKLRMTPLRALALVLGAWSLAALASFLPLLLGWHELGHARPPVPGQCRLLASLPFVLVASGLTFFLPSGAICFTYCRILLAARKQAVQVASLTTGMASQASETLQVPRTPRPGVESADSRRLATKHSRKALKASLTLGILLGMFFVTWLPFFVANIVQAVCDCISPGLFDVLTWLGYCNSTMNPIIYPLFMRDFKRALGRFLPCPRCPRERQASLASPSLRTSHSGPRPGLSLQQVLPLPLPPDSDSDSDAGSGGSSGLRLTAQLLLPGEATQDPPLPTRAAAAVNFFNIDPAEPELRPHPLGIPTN
Sequence of D(1A) dopamine receptor (Homo sapiens) (P21728 whole entry): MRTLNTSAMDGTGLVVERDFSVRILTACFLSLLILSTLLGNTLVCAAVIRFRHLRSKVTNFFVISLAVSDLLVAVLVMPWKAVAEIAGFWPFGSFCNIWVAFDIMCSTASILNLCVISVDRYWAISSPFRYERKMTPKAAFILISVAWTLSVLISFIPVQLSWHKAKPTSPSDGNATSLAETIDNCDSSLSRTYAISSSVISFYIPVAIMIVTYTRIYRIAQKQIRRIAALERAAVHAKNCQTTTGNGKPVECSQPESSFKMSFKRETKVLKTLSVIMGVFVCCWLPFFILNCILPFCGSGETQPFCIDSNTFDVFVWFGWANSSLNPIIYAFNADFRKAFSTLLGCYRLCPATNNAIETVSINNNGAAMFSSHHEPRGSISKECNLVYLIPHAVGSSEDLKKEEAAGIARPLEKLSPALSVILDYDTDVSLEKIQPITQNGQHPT
Sequence of Histamine H4 receptor (Homo sapiens) (Q9H3N8 whole entry): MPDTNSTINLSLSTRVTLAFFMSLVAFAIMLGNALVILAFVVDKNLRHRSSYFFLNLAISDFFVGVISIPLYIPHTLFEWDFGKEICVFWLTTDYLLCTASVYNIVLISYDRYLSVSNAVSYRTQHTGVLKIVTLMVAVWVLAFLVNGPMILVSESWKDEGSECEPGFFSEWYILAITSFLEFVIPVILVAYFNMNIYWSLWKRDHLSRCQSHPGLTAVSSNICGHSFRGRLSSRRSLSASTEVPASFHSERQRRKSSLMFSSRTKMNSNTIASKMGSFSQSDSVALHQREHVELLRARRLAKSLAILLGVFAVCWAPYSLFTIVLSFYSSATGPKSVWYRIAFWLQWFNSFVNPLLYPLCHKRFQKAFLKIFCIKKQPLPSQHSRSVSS
Sequence of Delta-type opioid receptor (Homo sapiens) (P41143 whole entry): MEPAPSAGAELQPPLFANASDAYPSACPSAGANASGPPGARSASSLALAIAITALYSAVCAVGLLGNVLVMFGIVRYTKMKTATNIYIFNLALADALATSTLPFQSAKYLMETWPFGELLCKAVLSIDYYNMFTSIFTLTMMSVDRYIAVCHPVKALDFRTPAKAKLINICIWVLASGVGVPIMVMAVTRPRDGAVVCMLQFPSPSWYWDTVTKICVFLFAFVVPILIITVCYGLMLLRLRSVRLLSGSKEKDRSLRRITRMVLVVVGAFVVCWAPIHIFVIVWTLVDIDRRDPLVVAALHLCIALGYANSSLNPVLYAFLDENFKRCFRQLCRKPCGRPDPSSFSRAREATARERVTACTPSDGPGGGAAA
Sequence of D(3) dopamine receptor (Homo sapiens) (P35462 whole entry): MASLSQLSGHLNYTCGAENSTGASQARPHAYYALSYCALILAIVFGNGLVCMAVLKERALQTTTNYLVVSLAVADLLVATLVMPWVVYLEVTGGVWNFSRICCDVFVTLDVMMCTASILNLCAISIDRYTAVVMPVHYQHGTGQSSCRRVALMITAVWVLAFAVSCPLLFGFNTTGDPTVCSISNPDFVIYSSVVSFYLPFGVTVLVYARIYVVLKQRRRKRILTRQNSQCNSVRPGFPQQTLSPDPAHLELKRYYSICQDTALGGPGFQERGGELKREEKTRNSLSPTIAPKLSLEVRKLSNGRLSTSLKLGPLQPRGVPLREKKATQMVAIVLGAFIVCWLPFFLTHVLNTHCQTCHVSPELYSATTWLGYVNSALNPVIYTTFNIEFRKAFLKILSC
Sequence of 5-hydroxytryptamine receptor 1B (Homo sapiens) (P28222 whole entry): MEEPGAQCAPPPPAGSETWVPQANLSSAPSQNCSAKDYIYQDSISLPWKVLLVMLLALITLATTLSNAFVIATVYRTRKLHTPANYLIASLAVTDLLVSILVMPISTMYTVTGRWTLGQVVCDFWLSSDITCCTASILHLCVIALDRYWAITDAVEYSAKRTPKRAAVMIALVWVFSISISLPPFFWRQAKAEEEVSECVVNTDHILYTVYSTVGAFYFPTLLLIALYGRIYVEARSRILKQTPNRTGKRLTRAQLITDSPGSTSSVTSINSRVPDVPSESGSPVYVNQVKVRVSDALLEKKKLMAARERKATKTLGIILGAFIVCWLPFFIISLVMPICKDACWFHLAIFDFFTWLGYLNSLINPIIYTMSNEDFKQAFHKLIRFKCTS
Sequence of D(2) dopamine receptor (Homo sapiens) (P14416 whole entry): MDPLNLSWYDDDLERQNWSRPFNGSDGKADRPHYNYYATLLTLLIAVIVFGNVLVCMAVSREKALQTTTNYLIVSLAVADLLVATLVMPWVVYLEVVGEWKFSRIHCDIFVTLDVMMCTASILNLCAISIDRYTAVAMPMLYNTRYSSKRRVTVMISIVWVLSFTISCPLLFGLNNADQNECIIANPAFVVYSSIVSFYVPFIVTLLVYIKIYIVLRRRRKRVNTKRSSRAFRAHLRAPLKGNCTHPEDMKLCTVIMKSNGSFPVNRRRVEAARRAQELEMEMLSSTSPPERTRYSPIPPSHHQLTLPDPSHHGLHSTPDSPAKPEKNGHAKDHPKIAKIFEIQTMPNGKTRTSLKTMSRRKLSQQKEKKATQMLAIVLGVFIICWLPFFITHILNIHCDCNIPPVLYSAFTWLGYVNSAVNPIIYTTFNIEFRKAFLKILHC
Sequence of 5-hydroxytryptamine receptor 1D (Homo sapiens) (P28221 whole entry): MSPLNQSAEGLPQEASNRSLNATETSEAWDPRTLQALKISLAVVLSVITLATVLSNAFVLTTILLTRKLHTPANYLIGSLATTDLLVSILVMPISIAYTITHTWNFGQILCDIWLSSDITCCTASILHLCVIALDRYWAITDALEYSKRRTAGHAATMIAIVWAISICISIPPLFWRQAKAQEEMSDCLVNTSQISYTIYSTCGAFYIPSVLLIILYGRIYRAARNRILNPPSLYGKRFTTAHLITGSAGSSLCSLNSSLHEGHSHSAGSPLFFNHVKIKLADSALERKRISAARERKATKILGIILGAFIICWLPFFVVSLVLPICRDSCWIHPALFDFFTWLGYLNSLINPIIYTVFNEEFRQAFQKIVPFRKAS
Sequence of Sigma intracellular receptor 2 (Homo sapiens) (Q5BJF2 whole entry): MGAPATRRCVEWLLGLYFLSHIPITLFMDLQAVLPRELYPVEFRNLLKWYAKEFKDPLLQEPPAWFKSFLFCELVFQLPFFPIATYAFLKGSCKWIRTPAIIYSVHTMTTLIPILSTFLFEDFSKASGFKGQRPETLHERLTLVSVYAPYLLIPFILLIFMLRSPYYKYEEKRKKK
Sequence of Beta-2 adrenergic receptor (Homo sapiens) (P07550 whole entry, looked up): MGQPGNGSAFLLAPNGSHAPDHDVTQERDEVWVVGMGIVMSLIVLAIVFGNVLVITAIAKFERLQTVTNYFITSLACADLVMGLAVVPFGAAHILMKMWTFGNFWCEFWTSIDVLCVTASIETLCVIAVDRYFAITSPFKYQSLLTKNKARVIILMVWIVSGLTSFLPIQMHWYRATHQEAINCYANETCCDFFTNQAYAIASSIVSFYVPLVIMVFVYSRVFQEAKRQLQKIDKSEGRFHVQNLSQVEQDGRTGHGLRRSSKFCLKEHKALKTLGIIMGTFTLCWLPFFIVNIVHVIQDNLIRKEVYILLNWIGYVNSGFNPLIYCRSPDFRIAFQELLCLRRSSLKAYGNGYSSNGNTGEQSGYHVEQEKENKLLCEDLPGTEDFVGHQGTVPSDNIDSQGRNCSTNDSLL

Structure (SMILES)	inhibition [1] [%]	inhibition [2] [%]	inhibition [3] [%]	inhibition [4] [%]	inhibition [5] [%]	inhibition [6] [%]	inhibition [7] [%]	inhibition [8] [%]	inhibition [9] [%]	inhibition [10] [%]	inhibition [11] [%]	inhibition [12] [%]	inhibition [13] [%]	inhibition [14] [%]	inhibition [15] [%]	inhibition [16] [%]	inhibition [17] [%]	inhibition [18] [%]	inhibition [19] [%]	inhibition [20] [%]	also measured
CO[C@@H]1COCC[C@@H]1N[C@@H]1CC[C@@](C(=O)N2CCc3ncc(C(F)(F)F)cc3C2)(C(C)C)C1	3.2	-6.91	-4.29	16.4	33.7	0.19	2.39	19.6	-6.23	9.5	4.71	3.16	-2.34	-2.04	67.9	11.4	–	–	–	–	–
CN(C)S(=O)(=O)c1ccc(NC(=S)N2CCC(C(O)(c3ccccc3)c3ccccc3)CC2)cc1	21.8	71.8	–	23.4	21.5	5.17	-3.58	10.5	–	7.01	11	8.14	10.2	16	95.2	75.4	-9.2	21.9	15.8	–	–
FC(F)(F)c1c(N2CCC(c3ccccc3)CC2)ccn2c(CC3CC3)nnc12	1.28	-5.09	-6.28	26	14.2	-0.45	-1.74	-5.72	-8.94	21.9	44.4	-9.81	–	42.4	22.9	36.9	–	–	31.6	–	–
O=C(O)C1CN(Cc2ccc(-c3nc4cc(Cc5ccccc5F)ccc4s3)c(F)c2)C1	20.6	66.8	–	–	91	-0.27	-0.17	11.5	–	31.1	9.17	8.45	-3.98	-1.28	19.1	22.3	–	2.63	20.8	–	–
CN1CCC(=C2c3ccccc3CC(=O)c3sccc32)CC1	42.7	25.3	93.2	100	80.2	55.2	26.2	6.57	63.1	27.9	–	78.4	14.2	–	91.3	6.55	80.9	82.8	45.1	123	inhibition [21]: 90.4%
CC(C)NCC(O)COc1cccc2[nH]ccc12 (stereo not drawn)	1.35	100	10.5	30.5	65.4	26.3	-8.33	94.1	22	20	–	4.75	-2.56	–	97.5	38.5	29	29.3	27.1	50.9	inhibition [21]: 37.8%
N[C@H](C(=O)O)c1ccc(C(=O)O)c(C(=O)O)c1	-9.35	6.53	14.1	13.7	62.5	–	15	8.99	-2.1	-8.66	5.29	4.51	13.1	69.3	–	13.8	–	–	54.5	19.2	–
CC1CCN(CC[C@H]2CCCN2S(=O)(=O)c2cccc(O)c2)CC1	51.5	-9.8	1.99	33.5	61.6	85.1	10.6	0.65	78.2	7.28	28.8	–	7.91	–	98.2	-7.14	65.6	-5.94	30.6	88.7	inhibition [21]: 85.8%
CN1C[C@H](C(=O)N[C@]2(C)O[C@@]3(O)[C@@H]4CCCN4C(=O)[C@H](Cc4ccccc4)N3C2=O)C[C@@H]2c3cccc4[nH]cc(c34)C[C@H]21	115	18.1	7.31	100	97.8	78.7	3.01	96.3	104	76.1	–	97.4	14.2	–	93.6	19	99.6	36.3	21.2	98.8	inhibition [21]: 91.3%
O=C(O)CC1CCC2(CC1)CCN(c1cc(OC(F)(F)F)ccc1Cl)CC2	0.13	0.58	-6.92	18.6	65.5	-2.48	9.28	-1.2	-0.21	16.8	26.1	14.2	-0.66	29.8	-1.25	7.83	–	–	13.3	–	–
